Measured values: patent publication US10258620B2, “Crystalline form of 5-amino-2,3-dihydrophthalazine-1,4-dione sodium salt, pharmaceutical preparations containing the same and method for the production of said form” (METRIOPHARM AG, priority 2014, dated 2019)
Structures can show the parent of a compound that is named as a salt. Where two headings read alike, the source gives them in different places. Each block holds one compound with its values, some of them ahead of it.

Columns and labels:
[1] = FIG. 8, increasing proportion of H2O
[2] = determination repeated 10 times
Method: After drying all forms produced were vortexed for 1 minute to let bigger agglomerates carefully disaggregate.
A sample of each of the respective solids to be determined was filled into a plastic funnel for solids (diameter of the outlet: 11 mm) with closable outlet which was mounted in a height of 20 mm above the collecting vessel. The funnel used was always filled half-full, thereby ensuring that there was always more sample material provided than necessary for filling the collecting vessel. After opening the outlet the respective solids trickled into the collecting vessel until it was filled up above the upper rim. The supernatant of the respective solids was removed with a spatula and the filled collecting vessel was weighed out with a high-resolution balance. The determination for each form was repeated 10 times and the mean value was calculated (Table 3).

[3] = from WO2011/107295A1; cited from earlier work
TNF alpha = conditions: PMA-differentiated HL60 cells, pre-stimulation 1 h with 1 mmol/l, then 100 ng/mL LPS 24 h, 3 measurements, LPS control 30.08
Method: (§1) For the differentiation to macrophages HL60 cells were treated with phorbol 12-myristate 13-acetate (PMA) in advance. […] The secretion of TNF alpha and IL-6 was determined in the cell supernatant using ELISA testing over 3 measurements, respectively. Table 4 as well as FIGS. 7a and 7b show the respective mean value m and the standard deviation s (GraphPad Prism 5).

IL-6 = conditions: PMA-differentiated HL60 cells, pre-stimulation 1 h with 1 mmol/l, then 100 ng/mL LPS 24 h, 3 measurements, LPS control 42.81
Method: as §1

[4] = methanol or ethanol
Description: In polymorphs of crystalline solids phase transitions occur depending on the thermodynamic stability of the individual forms. […] Different transformation processes are known. […] In this respect so-called slurry experiments can provide information on the thermodynamic stability of polymorphs of a solid.
To compare the stability under the influence of solvents 50:50 (wt %) solid phase mixtures were produced of form III according to the invention and form I as well as of form III according to the invention and form II.
In each case 0.05 g of the respective solid phase mixture were suspended in 5 mL 2-propanol, methanol or ethanol, respectively. The mixture of form III and form I was stirred at RT for 3 days. The mixture of form III and form II was stirred at RT for 24 h. The suspensions were filtered under vacuum utilizing a Büchner funnel. The remaining crystalline solid was completely dried at RT. X-ray powder diffraction patterns of the resulting crystalline solids were recorded with a Bragg-Brentano diffractometer (STOE STADI P) provided with a DECTRIS MythenlK detector using mono-chromatized (Ge111-monochromator) copper emissions Cu K(α1) (wave length λ=1.54187 Å).

[5] = 30-600° C., synthetic air, heating rate 10° C./min
Method: The determination was carried out by means of simultaneous thermogravimetry (differential scanning calorimetry) at a Linseis L81-077 coupled with mass spectroscopy measurements with a Netzsch STA 449 C (thermobalance) with MS and FTIR coupling over 30-600° C. under synthetic air (4 N2:1 O2) and a heating rate of 10° C./min. The data were analyzed with the company software Proteus.

physchem = assay: physchem
Method: Determination of the maximum solubility of crystalline form III in water at RT was carried out with UV-Vis spectroscopy in an Agilent Cary 300 UV-Vis spectrometer. This process is based on a linear correlation between the concentration of a dissolved solid and the calculated absorption at a particular wavelength (Beer-Lambert law).
A stock solution of 0.502 g of form III in 2 mL H2O (demineralized) was produced. For the generating a 3-point calibration curve three solutions were produced after appropriate dilution thereof with concentrations of 0.5041 mmol/l, 0.2521 mmol/l and 0.1260 mmol/l, and their respective absorption at 347 nm was determined. […] Further, a supersaturated solution of 0.531 g of form III in 2 mL H2O (demineralized) was produced to determine the maximum concentration. 100 μL of the solution were 2000-fold diluted and the absorption at 347 nm was determined as well.

[6] = water, thermodynamic from solid

- solubility in a DMSO-H2O mixture with increasing proportion of H2O [1]: increases continuously
SMILES: Nc1cccc2c(=O)[nH][nH]c(=O)c12 [5-amino-2,3-dihydrophthalazine-1,4-dione sodium salt]

- Bulk densities (mean ± standard deviation) ([2]; sodium salt dihydrate): 72.3 ± 4.1 kg/m^3
SMILES: Nc1cccc2c(=O)[nH][nH]c(=O)c12 [Dihydrate, 5-amino-2,3-dihydrophthalazine-1,4-dione sodium salt dihydrate]
- solid phase transition temperature [3]: 85 °C
- TNF-alpha secretion, mean m (TNF alpha; sodium salt dihydrate): 26.87 pg/mL
- IL-6 secretion, mean m (IL-6; sodium salt dihydrate): 40.93 pg/mL

- Bulk densities (mean ± standard deviation) ([2]; sodium salt): 201.9 ± 3.9 kg/m^3
SMILES: Nc1cccc2c(=O)[nH][nH]c(=O)c12 [Form I, 5-amino-2,3-dihydrophthalazine-1,4-dione sodium salt]
- TNF-alpha secretion, mean m (TNF alpha; sodium salt): 25.28 pg/mL
- IL-6 secretion, mean m (IL-6; sodium salt): 41.15 pg/mL

- Bulk densities (mean ± standard deviation) ([2]; sodium salt): 108.6 ± 3.0 kg/m^3
SMILES: Nc1cccc2c(=O)[nH][nH]c(=O)c12 [Form II, 5-amino-2,3-dihydrophthalazine-1,4-dione sodium salt]
- TNF-alpha secretion, mean m (TNF alpha; sodium salt): 22.16 pg/mL
- IL-6 secretion, mean m (IL-6; sodium salt): 36.11 pg/mL

- thermodynamic stability versus form I ([4]; 50:50 wt % mixture of form I and form III in 2-propanol, stirred at RT for 3 days): thermodynamically more stable polymorph
- thermodynamic stability versus form II ([4]; 50:50 wt % mixture of form II and form III in 2-propanol, stirred at RT for 24 h): thermodynamically more stable polymorph
- Bulk densities (mean ± standard deviation) ([2]; sodium salt): 203.5 ± 6.7 kg/m^3
- temperature at which decomposition starts [5]: 391.7 °C
- solubility in water compared with forms I and II (physchem; RT, forms I and II cf. WO2011/107295A1): less soluble than forms I and II
- solubility (physchem; [6]): 145 mg/mL
- solubility thermodynamic (physchem; [6]): 730 mM
SMILES: Nc1cccc2c(=O)[nH][nH]c(=O)c12 [Form III, 5-amino-2,3-dihydrophthalazine-1,4-dione sodium salt]
- TNF-alpha secretion, mean m (TNF alpha; sodium salt): 22.15 pg/mL
- IL-6 secretion, mean m (IL-6; sodium salt): 34.86 pg/mL
